Assay results from publication PMC11087444, “Multi-functionalization of reduced graphene oxide nanosheets for tumor theragnosis: Synthesis, characterization, enzyme assay, in-silico study, radiolabeling and in vivo targeting evaluation” (DARU Journal of Pharmaceutical Sciences, 2023).
One block for each compound: values may come before it.

Experiments:
PARP-1 = molecular target: T1, PARP-1 (Homo sapiens, UniProt P09874); assay: In vitro PARP inhibition assay (HT F Homogeneous PARP Inhibition Assay Kit); assay type: biochemical
T1 construct: purchased Trevigen 4690-096-K
Procedure: Olaparib was used as positive control. Fluorescence values under the condition of excitation wavelength (544 nm) and emission wavelength (590 nm) were measured using a multi-well spectrophotometer (Molecular Devices SpectraMax M5 microplate reader, Careforde, Chicago, USA). Then, the standard curve was drawn and the inhibition rate of each test compound was calculated. IC50 value of each compound was calculated using GraphPad Prism 6 software.

[1] = test system: human breast cancer MDA-MB-436 cells; assay: MTT cell proliferation assay, cytotoxicity of compounds 3 and 4a-c; assay type: cell-based; details: for IC50: Homo sapiens, MTT, BRCA1 deficient MDA-MB-436 cells; for reduction in potency (cytotoxicity): MDA-MB-436, relative to Staurosporine
Procedure: The cytotoxicity assay was performed at Department of therapeutic chemistry/ National Research Center. cytotoxic activity of target compounds 3, 4a-c was determined via three independent experiments by 3-(4,5-dimethylthiazolyl-2)-2,5-diphenyltetrazolium bromide (MTT) cell proliferation assay against the cell proliferation of human breast cancer MDA-MB-436 cells carrying natural BRCA1 deficient [R].

[2] = Biodistribution of radiolabeled complexes in normal mice; assay type: in vivo, Albino mice
[3] = test system: solid tumor (Ehrlich Ascites Carcinoma); assay: Biodistribution and tumor targeting in solid tumor-bearing mice; assay type: in vivo, Swiss Albino mice
Procedure: To form a solid tumor, a 0.2 mL of Ehrlich Ascites Carcinoma fluid was administered intramuscularly in the right thigh of female Swiss Albino mice. The animals were well-cared until the tumors became obvious (7- 10 days). The parent tumor line (Ehrlich Ascites Carcinoma) was withdrawn from 7-day-old Swiss Albino donor females and diluted with sterile physiological saline solution to yield 12.5 x 10^6 cells/mL [52].
Biodistribution studies were performed by injecting the solid tumor-bearing mice intravenously with NGO-COOH nanosheets followed by injecting the radiolabeled complexes. The mice were divided into four groups (four mice per group) according to the designated time of dissection. Following the administration of the radiolabeled nanosheets, mice were dissected at 0.5, 1, 2, 4 h post injection (p.i). Blood, solid tumor, and major organs/tissues were collected and wet-weighed. The distribution of the radioactivity in each organ/ fluid was measured ex vivo, the radioactivity in each was detected by a gamma-counter (Perkin Elmer) as presented in Fig. 4. The results were expressed as mean percentage injected dose per gram (%ID/g ± SD).

T1 sequence (P09874 whole entry): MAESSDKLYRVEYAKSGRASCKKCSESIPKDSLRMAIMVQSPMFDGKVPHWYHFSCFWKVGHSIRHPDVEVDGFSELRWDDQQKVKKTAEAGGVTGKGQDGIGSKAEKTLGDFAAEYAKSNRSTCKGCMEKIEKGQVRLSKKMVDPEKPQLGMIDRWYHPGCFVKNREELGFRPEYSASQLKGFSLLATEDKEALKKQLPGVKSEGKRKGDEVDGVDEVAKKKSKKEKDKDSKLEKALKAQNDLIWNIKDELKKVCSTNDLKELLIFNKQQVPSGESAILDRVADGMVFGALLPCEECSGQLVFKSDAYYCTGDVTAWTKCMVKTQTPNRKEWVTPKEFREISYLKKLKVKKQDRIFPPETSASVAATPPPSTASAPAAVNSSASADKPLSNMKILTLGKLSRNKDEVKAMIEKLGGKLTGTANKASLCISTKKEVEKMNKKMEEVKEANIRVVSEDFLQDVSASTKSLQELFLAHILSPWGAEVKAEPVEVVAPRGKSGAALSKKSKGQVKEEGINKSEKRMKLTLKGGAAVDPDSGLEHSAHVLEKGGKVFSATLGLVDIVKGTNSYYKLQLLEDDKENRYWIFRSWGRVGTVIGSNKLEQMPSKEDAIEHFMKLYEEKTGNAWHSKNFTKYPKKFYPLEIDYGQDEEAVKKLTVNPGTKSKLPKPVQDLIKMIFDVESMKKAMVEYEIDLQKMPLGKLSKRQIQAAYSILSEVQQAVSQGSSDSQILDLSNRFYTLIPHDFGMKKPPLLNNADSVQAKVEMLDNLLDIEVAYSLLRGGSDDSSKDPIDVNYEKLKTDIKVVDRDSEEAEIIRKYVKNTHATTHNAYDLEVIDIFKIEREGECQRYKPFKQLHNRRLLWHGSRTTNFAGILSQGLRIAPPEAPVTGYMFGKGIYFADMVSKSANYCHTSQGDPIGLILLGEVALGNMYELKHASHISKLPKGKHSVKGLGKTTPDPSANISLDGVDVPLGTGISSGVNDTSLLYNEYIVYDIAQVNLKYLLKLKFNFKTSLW

IC50 (PARP-1): 261 nM | melting point: 268 to 270 °C
Compound: NNS(=O)(=O)c1ccc2c(=O)[nH]c(=O)[nH]c2c1 [Compound 3, 2,4-dioxo-1,2,3,4-tetrahydroquinazoline-7-sulfonohydrazide]
IC50 [1]: 6 nM | times more potent than Staurosporine (cytotoxicity) ([1]; MDA-MB-436, ratio of IC50): about 1.6 times

IC50 (PARP-1): 436 nM | melting point: > 300 °C
Compound: Cc1ccc(NS(=O)(=O)c2ccc3c(=O)[nH]c(=O)[nH]c3c2)cc1 [Compound 4a, 2,4-Dioxo-N-(p-tolyl)-1,2,3,4-tetrahydroquinazoline-7-sulfonamide]
IC50 [1]: 50 nM | reduction in potency (cytotoxicity) [1]: 5 folds

IC50 (PARP-1): 167 nM | melting point: 280 to 282 °C
Compound: O=C(O)c1ccccc1NS(=O)(=O)c1ccc2c(=O)[nH]c(=O)[nH]c2c1 [Compound 4b, 2-(2,4-Dioxo-1,2,3,4-tetrahydroquinazoline-7-sulfonamido) benzoic acid]

IC50 (PARP-1): 153 nM | melting point: 265 to 267 °C
Compound: O=c1[nH]c(=O)c2ccc(S(=O)(=O)Nc3nccs3)cc2[nH]1 [Compound 4c, 2,4-dioxo-N-(thiazol-2-yl)-1,2,3,4-tetrahydroquinazoline-7-sulfonamide]
IC50 [1]: 40 nM | reduction in potency (cytotoxicity) [1]: 4 folds

blood uptake ([2]; normal mice, i.v., 0.5 h p.i.): 10.5 ± 1.4 %ID/g | liver uptake ([2]; normal mice, i.v., 0.5 h p.i.): 11 ± 1.7 %ID/g | liver uptake ([2]; normal mice, i.v., 1 h p.i.): 12 ± 1.2 %ID/g | blood uptake ([2]; normal mice, i.v., 4 h p.i.): 3.2 ± 0.4 %ID/g | liver uptake ([2]; normal mice, i.v., 4 h p.i.): 8 ± 1.3 %ID/g | tumor uptake ([3]; solid tumor-bearing mice, i.v., 0.5 h p.i.): 5.0 ± 0.40 %ID/g | tumor uptake ([3]; solid tumor-bearing mice, i.v., 2 h p.i.): 6.5 ± 0.3 %ID/g | tumor uptake ([3]; solid tumor-bearing mice, i.v., 4 h p.i.): 6.0 ± 0.4 %ID/g
Compound: [^99mTc]Tc-2,4-dioxo-1,2,3,4-tetrahydroquinazoline-7-sulfonohydrazide [^99mTc-3]

Compound: [^99mTc]Tc-NGO-COOH-2,4-dioxo-1,2,3,4-tetrahydroquinazoline-7-sulfonohydrazide [^99mTc-NGO-COOH-3]
blood uptake ([2]; mouse, in vivo, iv, 0.5 h): 5.0 ± 0.5 %ID/g | liver uptake ([2]; mouse, in vivo, iv, 0.5 h): 7.0 ± 0.7 %ID/g | blood uptake ([2]; mouse, in vivo, iv, 4 h): 1 ± 0.1 %ID/g | liver uptake ([2]; mouse, in vivo, iv, 4 h): 15.0 ± 1.5 %ID/g | target/nontarget (T/NT) ratio, tumor muscle to contralateral normal muscle ([3]; mouse, in vivo, iv): 9.0 | tumor uptake ([3]; mouse, in vivo, iv, 0.5 h): 7.0 ± 0.70 %ID/g | tumor uptake ([3]; mouse, in vivo, iv, 1 h): 12.0 ± 1.2 %ID/g
